What was measured:
histamine H4 receptor [1] = target: T1, histamine H4 receptor (Homo sapiens, UniProt Q9H3N8); experiment: in vitro assay of histamine H4 activity using FLIPR-Ca+2 flux; type: cell-based; conditions: HEK-293 cells stably expressing histamine H4 receptor and Gαqi5, Fluo-4; Kb for antagonists and inverse agonists, EC50 for partial agonists
T1 construct: expressed in transfected cells
From the text: There are many methods available to show the effectiveness of compounds as histamine H4 receptor ligands. Histamine H4 receptors from mammalian species have been cloned. Methods to clone, express, and assess the potency and functional activity of such cloned genes are well known to those skilled in the art of molecular biology. Examples of methods of cloning and expressing histamine H4 receptors, and of assessing the potency and functional activity are described in Nguyen, et al. Molecular Pharmacology (2001) vol. 59 pp. 427-433; Zhu, et al. Molecular Pharmacology (2001) vol. 59 pp. 434-441; Coge, et al., Biochemical and Biophysical Research Communications (2001) vol. 284, pp. 301-309; Liu, et al. Molecular Pharmacology (2001) vol. 59 pp. 420-426; Liu, et al. Journal of Pharmacology and Experimental Therapeutics (2001) v. 299, pp. 121-130; and Thurmond, et al. Journal of Pharmacology and Experimental Therapeutics (2004) v. 309, pp. 404-413. In the present case, to determine the potency and effectiveness of representative compounds of this invention as histamine-H4 receptor ligands (H4 receptor ligands), the following tests were conducted according to previously described methods (see Esbenshade, et al., Biochemical Pharmacology (2004), vol. 68, pp. 933-945, and in Krueger, et al., Journal of Pharmacology and Experimental Therapeutics (2005) v. 314, pp. 271-281): histamine H4 receptors were cloned and stably expressed in HEK-293 (human embryonic kidney) cells coexpressing a Gαqi5. Before testing, cells are loaded with a Ca+^2 sensitive fluorescent dye, in this case Fluo-4 (Invitrogen, Carlsbad, Calif.). In the case of partial agonist or agonist ligands, addition of compound to the cells leads to the increase in intracellular Ca^+2 which is detected by FLIPR (Fluorescence Imaging Plate Reader; Molecular Devices, Sunnyvale, Calif.) technology. In a similar manner, compounds that are antagonists or inverse agonists, block the increase in fluorescence induced by the full histamine H4 agonist histamine, and partial agonists reduce the amount of fluorescence induced by the full histamine H4 agonist histamine. The fluorescence intensities measured before addition of the test compound are subtracted from the fluorescence intensities at later time points. Peak response values determined at each concentration of ligand are expressed as a percentage of the response obtained with the full agonist histamine. Concentration versus response data are analyzed to obtain compound potency as Kb values for antagonists and inverse agonists and as EC50 values for partial agonists.

histamine H4 receptor [2] = target: T1, histamine H4 receptor; experiment: 3H-histamine competition binding assay; conditions: membranes of HEK-293 cells transiently transfected with histamine H4 receptor; [3H]-histamine, 25° C., 1 hour; read-out: Binding assay Potency (Ki)
Description: The potency of compounds of the invention in displacing ^3H-histamine in competition binding assays is assessed by methods described in Esbenshade, et al., Biochemical Pharmacology (2004), vol. 68, pp. 933-945. In this assay, membranes were prepared from HEK-293 cells transiently transfected with the pClNeo expression vector harboring the histamine H4 receptor by homogenization of the cells on ice in TE buffer (50 mM Tris-HCl buffer, pH 7.4, containing 5 mM EDTA), 1 mM benzamidine, 2 μg/mL aprotinin, 1 μg/mL leupeptin, and 1 μg/mL pepstatin. The homogenate was centrifuged at 40,000 g for 20 minutes at 4° C. This step was repeated, and the resulting pellet was resuspended in TE buffer. Aliquots were frozen at −70° C. until needed. On the day of assay, membranes were thawed and diluted with TE buffer. Competition radioligand binding assays were performed with increasing concentrations of test compound in the presence of [^3H]-histamine incubated at 25° C. for 1 hour in a total volume of 0.5 mL of 50 mM Tris, 5 mM EDTA, pH 7.4. All binding reactions were terminated by filtration under vacuum onto polyethylenimine (0.3%) presoaked Unifilters (PerkinElmer Life Sciences) or Whatman GF/B filters (Whatman, Clifton, N.J.) followed by three brief washes with 4 mL of ice-cold TE buffer. Bound radiolabel was determined by liquid scintillation counting. For all of the radioligand competition binding assays, IC50 values and Hill slopes were determined by Hill transformation of the data and Ki values were determined by the Cheng-Prusoff equation. The following table of representative histamine H4 receptor ligands is provided, along with potency values: […]

T1 sequence (Q9H3N8 whole entry, species assumed): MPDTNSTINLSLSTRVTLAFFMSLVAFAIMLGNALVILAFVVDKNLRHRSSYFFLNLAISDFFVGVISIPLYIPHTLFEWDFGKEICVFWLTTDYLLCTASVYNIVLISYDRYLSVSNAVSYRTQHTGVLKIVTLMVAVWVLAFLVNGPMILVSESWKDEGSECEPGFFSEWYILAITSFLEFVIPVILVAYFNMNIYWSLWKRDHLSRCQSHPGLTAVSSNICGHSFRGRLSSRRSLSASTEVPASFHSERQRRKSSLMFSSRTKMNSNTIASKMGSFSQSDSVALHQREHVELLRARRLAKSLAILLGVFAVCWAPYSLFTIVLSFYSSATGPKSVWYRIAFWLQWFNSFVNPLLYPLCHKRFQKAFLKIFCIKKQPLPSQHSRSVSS

| SMILES | Potency (histamine H4 receptor [1]) [nM] | Ki (histamine H4 receptor [2]) [nM] |
| --- | --- | --- |
| CN[C@@H]1CCN(c2nc(N)nc3c2CCCC2C4C=CC(CC4)C32)C1 (stereo partly drawn) [Example 25, 4-[(3R)-3-(methylamino)pyrrolidin-1-yl]-6,7,7a,8,11,11a-hexahydro-5H-8,11-ethanobenzo[6,7]cyclohepta[1,2-d]pyrimidin-2-amine] | 24.0 | 5.6 |
| CN[C@@H]1CCN(c2nc(N)nc3c2CC[C@@H]2CCCC[C@@H]32)C1 (mixture of isomers) [Example 16, trans-4-[(3R)-3-(methylamino)pyrrolidin-1-yl]-5,6,6a,7,8,9,10,10a-octahydrobenzo[h]quinazolin-2-amine] | 1.4 | 2.6 |
| CN[C@@H]1CCN(c2nc(N)nc3c2CCCC2C4CCC(CC4)C32)C1 (stereo partly drawn) [Example 28, 4-[(3R)-3-(methylamino)pyrrolidin-1-yl]-6,7,7a,8,9,10,11,11a-octahydro-5H-8,11-ethanobenzo[6,7]cyclohepta[1,2-d]pyrimidin-2-amine] | 21.9 | 5.5 |
| Nc1nc2c(c(N3C[C@H]4CCCN[C@H]4C3)n1)CCCC1C3C=CC(CC3)C21 (relative stereo) [Example 24, 4-cis-octahydro-6H-pyrrolo[3,4-b]pyridin-6-yl-6,7,7a,8,11,11a-hexahydro-5H-8,11-ethanobenzo[6,7]cyclohepta[1,2-d]pyrimidin-2-amine] | 91.2 |  |
| Nc1nc2c(c(N3CCCN(C4CCC4)CC3)n1)CCC1=C2C2CCCCC2O1 (stereo not shown) [Example 11, 4-(4-cyclobutyl-1,4-diazepan-1-yl)-5,6,7a,8,9,10,11,11a-octahydro[1]benzofuro[2,3-h]quinazolin-2-amine] | 2000 |  |
| Nc1nc2c(c(N3CCCNCC3)n1)CCC1=C2C2CCCCC2O1 (stereo not shown) [Example 9, 4-(1,4-diazepan-1-yl)-5,6,7a8,9,10,11,11a-octahydro[1]benzofuro[2,3-h]quinazolin-2-amine] | 16 |  |
| CCNC1CN(c2nc(N)nc3c2CC[C@@H]2CCCC[C@@H]32)C1.O=C(O)C(F)(F)F.O=C(O)C(F)(F)F (relative stereo) [Example 15, trans-4-[3-(ethylamino)azetidin-1-yl]-5,6,6a,7,8,9,10,10a-octahydrobenzo[h]quinazolin-2-amine bis(trifluoroacetate)] | 3.2 | 1 |
| Nc1nc2c(c(N3CCNCC3)n1)CC[C@@H]1CCCC[C@@H]21 (relative stereo) [Example 12, trans-4-piperazin-1-yl-5,6,6a,7,8,9,10,10a-octahydrobenzo[h]quinazolin-2-amine] | 6.9 | 2 |
| Nc1nc(N2CC[C@@H](N)C2)c2ccc3c(c2n1)C1CCCCC1O3 (stereo partly drawn) [Example 7, 4-[(3R)-3-aminopyrrolidin-1-yl]-7a,8,9,10,11,11a-hexahydro[1]benzofuro[2,3-h]quinazolin-2-amine] | 4.1 | 12.6 |
| CNC1CN(c2nc(N)nc3c2CC[C@@H]2CCCC[C@@H]32)C1.O=C(O)C(F)(F)F.O=C(O)C(F)(F)F (relative stereo) [Example 14, trans-4-[3-(methylamino)azetidin-1-yl]-5,6,6a,7,8,9,10,10a-octahydrobenzo[h]quinazolin-2-amine bis(trifluoroacetate)] | 1.5 | 0.9 |
| Nc1nc2c(c(N3CC[C@@H](N)C3)n1)CC[C@@H]1CCCC[C@@H]21 (mixture of isomers) [Example 17, trans-4-[(3R)-3-aminopyrrolidin-1-yl]-5,6,6a,7,8,9,10,10a-octahydrobenzo[h]quinazolin-2-amine] | 1.2 |  |
| Nc1nc2c(c(N3C[C@H]4CCCN[C@H]4C3)n1)CCCC1C3CCC(CC3)C21 (relative stereo) [Example 27, 4-cis-octahydro-6H-pyrrolo[3,4-b]pyridin-6-yl-6,7,7a,8,9,10,11,11a-octahydro-5H-8,11-ethanobenzo[6,7]cyclohepta[1,2-d]pyrimidin-2-amine] | 89.1 |  |
| CNC1CN(c2nc(N)nc3c2CC[C@@H]2CCCC[C@H]32)C1 (relative stereo) [Example 22, cis-4-[3-(methylamino)azetidin-1-yl]-5,6,6a,7,8,9,10,10a-octahydrobenzo[h]quinazolin-2-amine] | 3.0 |  |
| CN1CCCN(c2nc(N)nc3c2CCC2=C3C3CCCCC3O2)CC1 (stereo not shown) [Example 5, 4-(4-methyl-1,4-diazepan-1-yl)-5,6,7a,8,9,10,11,11a-octahydro[1]benzofuro[2,3-h]quinazolin-2-amine] | 16 |  |
| Nc1nc(N2C[C@H]3CNC[C@H]32)c2ccc3c(c2n1)C1CCCCC1O3 (stereo partly drawn) [Example 8, 4-[(1R,5S)-3,6-diazabicyclo[3.2.0]hept-6-yl]-7a,8,9,10,11,11a-hexahydro[1]benzofuro[2,3-h]quinazolin-2-amine] | 61.7 |  |
| Nc1nc2c(c(N3CC[C@@H](N)C3)n1)CC[C@@H]1CCCC[C@H]21 (mixture of isomers) [Example 20, cis-4-[(3R)-3-aminopyrrolidin-1-yl]-5,6,6a,7,8,9,10,10a-octahydrobenzo[h]quinazolin-2-amine] | 1.4 |  |
| Nc1nc2c(c(N3C[C@H]4CCCN[C@H]4C3)n1)CC[C@@H]1CCCC[C@H]21 (relative stereo) [Example 21, cis-4-[cis-octahydro-6H-pyrrolo[3,4-b]pyridin-6-yl]-5,6,6a,7,8,9,10,10a-octahydrobenzo[h]quinazolin-2-amine] | 8.3 |  |
| CN1CCN(c2nc(N)nc3c2CCC2=C3C3CCCCC3O2)CC1 (stereo not shown) [Example 6, 4-(4-methylpiperazin-1-yl)-5,6,7a,8,9,10,11,11a-octahydro[1]benzofuro[2,3-h]quinazolin-2-amine] | 25 |  |
| Nc1nc2c(c(N3CCNCC3)n1)CCCC1C3C=CC(CC3)C21 (stereo not shown) [Example 26, 4-piperazin-1-yl-6,7,7a,8,11,11a-hexahydro-5H-8,11-ethanobenzo[6,7]cyclohepta[1,2-d]pyrimidin-2-amine] | 60.3 |  |
| Nc1nc2c(c(N3CCNCC3)n1)CC[C@@H]1CCCC[C@H]21 (relative stereo) [Example 13, cis-4-piperazin-1-yl-5,6,6a,7,8,9,10,10a-octahydrobenzo[h]quinazolin-2-amine] | 3.3 | 1.8 |
| CCNC1CN(c2nc(N)nc3c2CC[C@@H]2CCCC[C@H]32)C1 (relative stereo) [Example 23, cis-4-[3-(ethylamino)azetidin-1-yl]-5,6,6a,7,8,9,10,10a-octahydrobenzo[h]quinazolin-2-amine] | 3.0 |  |
| CN[C@@H]1CCN(c2nc(N)nc3c2CC[C@@H]2CCCC[C@H]32)C1 (mixture of isomers) [Example 19, cis-4-[(3R)-3-(methylamino)pyrrolidin-1-yl]-5,6,6a,7,8,9,10,10a-octahydrobenzo[h]quinazolin-2-amine] | 1.6 |  |
| CC(C)N1CCCN(c2nc(N)nc3c2CCC2=C3C3CCCCC3O2)CC1 (stereo not shown) [Example 10, 4-(4-isopropyl-1,4-diazepan-1-yl)-5,6,7a,8,9,10,11,11a-octahydro[1]benzofuro[2,3-h]quinazolin-2-amine] | 1260 |  |

Source: patent US8278311B2, “Substituted pyrimidine derivatives” (Abbott Laboratories, priority 2008, dated 2012)
